In patent US20230021483A1, “[…] […] METHOD AND CLASSIFICATION OF PHARMACEUTICAL COMPONENTS BY USING TRANSCRIPTOMES” (National Institutes of Biomedical Innovation, Health and …, priority 2016, published 2023):

Tested on: circulating blood cells
Assay: Hematological cell count of peripheral blood 6 h after adjuvant administration (VetScan HMII)
Type: in vivo, C57BL/6 mice
Experimental: Take about 200 μL of blood from the retro-orbital venous plexus with a non-heparinized capillary tube and place the blood into a 1.5 mL tube comprising 2 μL of 10% EDTA-2K for hematological testing. Thoroughly mix the sample by gentle tapping. Stored at room temperature until hematological testing.
The hematological cell count was found using VetScan HMII (Abaxis). 50 μl of EDTA-2K blood sample was diluted by adding 250 μl of saline. Measurements are taken with VetScan HMII by following the instruction.
In a preliminary experiment, FCA and ALM were tested at different points up to 72 hours. […] At 6 hours after adjuvant administration, LV, SP, and LN (both sides) were removed to study the gene expression thereof by using Affimetrix Genechip microarray system (Affymetrix). The sampled organs were each placed in a tube containing RNAlater. The tube was maintained at 4° C. overnight, and stored at −80° C. until use. Blood was also collected after 6 hours from adjuvant administration for general hematological testing. About 200 μL of blood was taken from the retro-orbital venous plexus with a non-heparinized capillary tube and placed into a 1.5 mL tube comprising 2 μL of 10% EDTA-2K for hematological testing. The hematological cell count was found using VetScan HMII (Abaxis). 50 μl of EDTA-2K blood sample was diluted by adding 250 μl of saline. Measurements were taken with VetScan HMII by following the instruction.
The effect of adjuvant administration with respect to the changes in several hematological parameters was investigated. The following parameters were studied: white blood cells (WBC), lymphocytes (LYM), monocytes (MON), granulocytes (GRA), relative (%) content of lymphocytes (LY %), relative (%) content of monocytes (MO %), relative (%) content of granulocytes (GR %), red blood cells (RBC), hemoglobins (Hb, HGB), hematocrits (HCT), mean corpuscular volume (MCV), mean corpuscular hemoglobins (MCH), mean corpuscular hemoglobin concentration (MCHC), red blood cell distribution width (RDW), platelets (PLT), platelet concentration (PCT), mean platelet volume (MPV), and platelet distribution width (PDW).

[1] = peripheral blood 6 h after administration

CCOCc1nc2c(N)nc3ccccc3c2n1CC(C)(C)O [R848, 4-amino-2-(ethoxymethyl)-a,a-dimethyl-1H-imidazo[4,5-c]quinoline-1-ethanol]
leukopenia [1]: caused leukopenia
lymphopenia [1]: strongly induced

CC(O)COC[C@H]1O[C@@H]2O[C@H]3[C@H](O)[C@@H](O)[C@@H](O[C@H]4[C@H](O)[C@@H](O)[C@@H](O[C@H]5[C@H](O)[C@@H](O)[C@@H](O[C@H]6[C@H](O)[C@@H](O)[C@@H](O[C@H]7[C@H](O)[C@@H](O)[C@@H](O[C@H]8[C@H](O)[C@@H](O)[C@@H](O[C@H]1[C@H](O)[C@H]2O)O[C@@H]8COCC(C)O)O[C@@H]7COCC(C)O)O[C@@H]6COCC(C)O)O[C@@H]5COCC(C)O)O[C@@H]4COCC(C)O)O[C@@H]3COCC(C)O (stereo partly drawn) [bCD, Hydroxypropyl-beta-cyclodextrin]
monocytosis (monocytes in blood) [1]: clearly induced

Nc1nc2c(ncn2[C@@H]2O[C@@H]3COP(=O)(O)O[C@H]4[C@@H](O)[C@H](n5cnc6c(N)ncnc65)O[C@@H]4COP(=O)(O)O[C@@H]2[C@@H]3O)c(=O)[nH]1 [cGAMP, Cyclic [G(2′,5′)pA(3′,5′)p]]
monocytosis (monocytes in blood) [1]: clearly induced

Nc1nc2c(ncn2[C@@H]2O[C@@H]3COP(=O)(O)O[C@H]4[C@@H](O)[C@H](n5cnc6c(=O)[nH]c(N)nc65)O[C@@H]4COP(=O)(O)O[C@H]3[C@H]2O)c(=O)[nH]1 [cdiGMP, Cyclic diguanylate monophosphate]
monocytosis (monocytes in blood) [1]: clearly induced

Monophosphoryl lipid A [MPLA]
monocytosis (monocytes in blood) [1]: clearly induced

heptanoyl-γ-D-glutamyl-(L)-meso-diaminopimelyl-(D)-alanine [FK565]
granulocytosis (granulocytes in blood) (mouse, in vivo): caused granulocytosis
leukopenia (mouse, in vivo): caused leukopenia
lymphopenia (mouse, in vivo): strongly induced
